# Data: patent US12473262B2, “Aryl hydrocarbon receptor activators” (Oregon State University, priority 2019, dated 2025)
# Molecular target: aryl hydrocarbon receptor (AhR) (Mus musculus (Mouse), UniProt P30561)
# Test: AhR ligand screening: AhRE-luciferase reporter in transfected Hepa1 cells
# Format: cell-based
# Conditions: for Fold @ 1 nM: fold change of luciferase expression at 1 nM test compound relative to vehicle (0.1% DMSO); for Fold @ 100 nM: fold change of luciferase expression at 100 nM test compound relative to vehicle (0.1% DMSO); for Fold @ 10 uM: fold change of luciferase expression at 10 uM test compound relative to vehicle (0.1% DMSO); for Fold relative to benchmark @ 100 nM: luciferase expression at 100 nM test compound relative to 100 nM benchmark compound 11-cl-BBQ
# Method in brief: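 Values are fold luciferase induction relative to vehicle (0.1% DMSO), read by luminometry of lysates from Hepa1 cells carrying an AhRE-driven luciferase reporter. Cells were seeded at 1×10^4 per well, grown overnight and treated with compound before lysis.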
# aryl hydrocarbon receptor (AhR), sequence (P30561 10-805): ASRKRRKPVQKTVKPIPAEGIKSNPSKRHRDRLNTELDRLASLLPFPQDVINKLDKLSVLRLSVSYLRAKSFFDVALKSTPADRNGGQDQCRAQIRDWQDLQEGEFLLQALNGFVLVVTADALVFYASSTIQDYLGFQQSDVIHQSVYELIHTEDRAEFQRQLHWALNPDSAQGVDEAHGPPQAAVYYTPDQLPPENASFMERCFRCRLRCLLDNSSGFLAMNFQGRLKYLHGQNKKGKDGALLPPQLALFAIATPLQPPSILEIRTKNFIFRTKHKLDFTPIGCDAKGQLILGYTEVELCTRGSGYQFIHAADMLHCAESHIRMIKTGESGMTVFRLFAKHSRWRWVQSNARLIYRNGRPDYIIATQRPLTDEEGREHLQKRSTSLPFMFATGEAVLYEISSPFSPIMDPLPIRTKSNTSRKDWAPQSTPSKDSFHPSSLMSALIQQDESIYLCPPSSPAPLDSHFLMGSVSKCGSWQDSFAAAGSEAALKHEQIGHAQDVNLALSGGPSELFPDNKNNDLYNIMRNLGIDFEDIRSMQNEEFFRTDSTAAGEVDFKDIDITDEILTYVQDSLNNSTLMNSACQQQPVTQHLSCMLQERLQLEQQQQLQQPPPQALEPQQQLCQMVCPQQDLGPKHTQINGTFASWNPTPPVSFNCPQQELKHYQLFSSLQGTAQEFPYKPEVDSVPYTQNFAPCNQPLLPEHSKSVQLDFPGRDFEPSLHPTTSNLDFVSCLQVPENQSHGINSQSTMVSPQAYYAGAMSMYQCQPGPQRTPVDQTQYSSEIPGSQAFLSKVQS
# aryl hydrocarbon receptor (AhR), sequence (P53762 whole entry partner): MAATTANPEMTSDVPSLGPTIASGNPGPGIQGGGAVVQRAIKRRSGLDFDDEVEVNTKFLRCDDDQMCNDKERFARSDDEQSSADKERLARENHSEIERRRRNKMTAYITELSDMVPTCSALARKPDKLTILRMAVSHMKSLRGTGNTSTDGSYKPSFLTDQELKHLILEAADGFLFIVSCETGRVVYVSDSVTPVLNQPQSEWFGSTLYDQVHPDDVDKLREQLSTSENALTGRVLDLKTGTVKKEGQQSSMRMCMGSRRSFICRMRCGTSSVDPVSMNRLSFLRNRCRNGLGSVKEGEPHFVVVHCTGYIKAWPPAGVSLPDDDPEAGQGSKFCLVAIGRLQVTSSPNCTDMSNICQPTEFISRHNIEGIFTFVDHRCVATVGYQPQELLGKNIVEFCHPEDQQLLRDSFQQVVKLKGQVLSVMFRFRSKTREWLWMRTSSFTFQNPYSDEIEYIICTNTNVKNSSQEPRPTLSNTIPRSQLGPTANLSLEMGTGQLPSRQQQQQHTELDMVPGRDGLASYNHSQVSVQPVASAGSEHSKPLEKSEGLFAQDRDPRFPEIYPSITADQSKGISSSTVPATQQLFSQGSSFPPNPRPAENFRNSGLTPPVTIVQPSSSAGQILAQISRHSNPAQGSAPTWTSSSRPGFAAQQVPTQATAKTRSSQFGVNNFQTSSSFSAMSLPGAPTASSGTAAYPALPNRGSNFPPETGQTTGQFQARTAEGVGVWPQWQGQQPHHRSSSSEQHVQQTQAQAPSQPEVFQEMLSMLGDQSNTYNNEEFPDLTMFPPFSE
SMILES,Fold @ 1 nM,Fold @ 100 nM,Fold @ 10 uM,Fold relative to benchmark @ 100 nM
O=C(c1ccc(F)c(F)c1)n1c(-c2cccc(C(F)(F)F)c2Cl)nc2cc(Cl)ccc21 [Compound 875],1 fold,3 fold,48 fold,0.06 fold
Clc1ccc2c(c1)nc(-c1cccc3ccccc13)n2Cc1ccncc1 [Compound 876],1 fold,3 fold,32 fold,0.06 fold
Clc1ccc2nc(-c3cccc4ccccc34)n(Cc3ccncc3)c2c1 [Compound 877],1 fold,3 fold,42 fold,0.06 fold
O=C(c1ccc(OC(F)(F)F)cc1)c1c[nH]c2ccc(Cl)cc12 [Compound 881],1 fold,2 fold,18 fold,0.04 fold
Cc1ccc(C(=O)c2c[nH]c3ccc(Cl)cc23)cc1 [Compound 882],1 fold,1 fold,2 fold,0.02 fold
O=C(c1ccc(C(F)(F)F)cc1)c1c[nH]c2ccc(Cl)cc12 [Compound 883],1 fold,1 fold,2 fold,0.02 fold
Fc1ccc(Cn2c(-c3cccc4ccccc34)nc3cc(Cl)ccc32)cc1F [Compound 887],1 fold,1 fold,14 fold,0.02 fold
Fc1ccc(Cn2c(-c3cccc4ccccc34)nc3ccc(Cl)cc32)cc1F [Compound 888],1 fold,1 fold,9 fold,0.02 fold
O=C(c1c[nH]c2ccc(Cl)cc12)C1CCCCC1 [Compound 895],1 fold,1 fold,10 fold,0.02 fold
COC(=O)c1ccc2c(c1)nc(-c1cccc3ccccc13)n2C(=O)c1ccc(Cl)cc1Cl [Compound 1328],1 fold,2 fold,11 fold,0.07 fold
O=C(c1ccc2c(c1)nc(-c1cccc3ccccc13)n2Cc1ccc(F)c(F)c1)N1CCOCC1 [Compound 1329],1 fold,1 fold,1 fold,0.03 fold
O=C(c1ccc2nc(-c3cccc4ccccc34)n(Cc3ccc(F)c(F)c3)c2c1)N1CCOCC1 [Compound 1330],1 fold,1 fold,1 fold,0.03 fold
N#Cc1ccc(S(=O)(=O)n2c(-c3cccc4ccccc34)nc3cc(C(=O)N4CCCCC4)ccc32)cc1 [Compound 1336],1 fold,1 fold,6 fold,0.03 fold
